# pIC50: −log10 of the molar value.
# Columns and labels:
# Assay type in all cases: cell-based, human
# Con-NCI-H82 cell = experiment: CellTiter-Glo cell viability, Con-NCI-H82 cell (empty-vector control); conditions: Homo sapiens, NCI-H82, NCI-H82 transfected with empty virus vector (control), intracellular ATP, read-out: inhibitory effect on Con-NCI-H82 (IC50)
# ov-NNMT NCI-H82 cell = experiment: CellTiter-Glo cell viability, ov-NNMT NCI-H82 cell (NNMT overexpressed); conditions: Homo sapiens, NCI-H82, NCI-H82 overexpressing NNMT protein, intracellular ATP, read-out: inhibitory effect on OV-NNMT NCI-H82 (IC50)
# sh-DNMT1 NCI-H82 cell = experiment: CellTiter-Glo cell viability, sh-DNMT1 NCI-H82 cell (DNMT1 knocked down); conditions: Homo sapiens, NCI-H82, NCI-H82 with DNMT1 knocked down by shRNA, intracellular ATP, read-out: inhibitory effect on sh-DNMT1 NCI-H82 (IC50)
pIC50 (Con-NCI-H82 cell),pIC50 (ov-NNMT NCI-H82 cell),pIC50 (sh-DNMT1 NCI-H82 cell),SMILES
4.73,4.74,4.73,CCC1=C2c3cc4c(cc3CCN2C(C(Cl)(Cl)Cl)c2c1ccc1c2OCO1)OCO4 (stereo not drawn) [AB36426]
5.91,5.36,5.40,COc1ccc2c(c1OCCCF)C(C(Cl)(Cl)Cl)N1CCc3cc4c(cc3C1=C2)OCO4 (stereo not drawn) [AB35478]
5.91,5.25,5.05,[2H]C1c2c(ccc(OC)c2OC)C=C2c3cc4c(cc3CC([2H])([2H])N21)OCO4 (stereo not drawn) [AB36477]
5.89,5.39,5.36,COc1ccc2c(c1OC)C(C)N1CCc3cc4c(cc3C1=C2CCc1ccccc1)OCO4 (stereo not drawn) [AB35498]
6.01,5.59,5.39,COc1ccc2c(c1OCCCCCCCl)C(C1CCCC1)N1CCc3cc4c(cc3C1=C2)OCO4 (stereo not drawn) [AB35440]
6.43,5.87,5.70,COc1ccc2c(c1N1CCC(C(F)(F)F)CC1)C(C(Cl)(Cl)Cl)N1CCc3cc4c(cc3C1=C2)OCO4 (stereo not drawn) [AB35514]
6.02,5.59,5.63,COc1ccc2c(c1NCCc1ccccc1)C(C1CCCC1)N1CCc3cc4c(cc3C1=C2)OCO4 (stereo not drawn) [AB35457]
5.99,5.49,5.30,COc1ccc2c(c1OCCCCOc1ccccc1)C(C1CCCC1)N1CCc3cc4c(cc3C1=C2)OCO4 (stereo not drawn) [AB35454]
5.36,5.39,5.40,COc1ccc2c(c1OC)C(=C(Cl)Cl)N1CCc3cc4c(cc3C1=C2)OCO4 [AB36512]
6.60,5.87,5.59,COc1ccc2c(c1NCCc1ccccc1)C(C(Cl)(Cl)Cl)N1CCc3cc4c(cc3C1=C2)OCO4 (stereo not drawn) [AB35486]
6.35,5.84,5.64,C1=C2c3cc4c(cc3CCN2Cc2cc3c(cc21)OCO3)OCO4 [AB36428]
5.34,4.91,4.78,COc1ccc2c(c1OCCCF)C(C)N1CCc3cc4c(cc3C1=C2)OCO4 (stereo not drawn) [AB35485]
5.87,5.36,5.40,COc1ccc2c(c1OC)C(C(Cl)(Cl)Cl)N1CCc3cc4c(cc3C1=C2CCCCCCCl)OCO4 (stereo not drawn) [AB35524]
5.41,5.45,5.40,COc1ccc2c(c1OC)C(C1CCCCC1=O)N1CCc3cc4c(cc3C1=C2)OCO4 (stereo not drawn) [AB36525]
5.25,4.88,4.81,C1=C2c3cc4c(cc3CCN2C(C2CCCC2)c2cc3c(cc21)OCO3)OCO4 (stereo not drawn) [AB35467]
5.95,5.53,5.54,COc1ccc2c(c1OC)C(C1CCCC1)N1CCc3cc4c(cc3C1=C2CCCCCCCl)OCO4 (stereo not drawn) [AB35500]
5.94,5.47,5.26,COc1ccc2c(c1OCCCCCCNC(=O)OC(C)(C)C)C(C)N1CCc3cc4c(cc3C1=C2)OCO4 (stereo not drawn) [AB35415]
6.06,5.59,5.44,[2H]C1c2c(ccc(OC)c2OC)C=C2c3cc4c(cc3CCN21)OCO4 (stereo not drawn) [AB36415]
6.27,5.71,5.52,CCCCCC1c2c(ccc3c2OCO3)C=C2c3cc4c(cc3CCN21)OCO4 (stereo not drawn) [AB36433]
5.65,5.33,5.21,COc1ccc2c(c1OCCCCCCCl)C(C)N1CCc3cc4c(cc3C1=C2)OCO4 (stereo not drawn) [AB31888]
5.30,4.90,4.74,COc1ccc2c(c1OCCN1CCCCC1)C(C(Cl)(Cl)Cl)N1CCc3cc4c(cc3C1=C2)OCO4 (stereo not drawn) [AB35420]
5.84,5.34,5.35,CCCC1=C2c3cc4c(cc3CCN2C(C(Cl)(Cl)Cl)c2c1ccc(OC)c2OC)OCO4 (stereo not drawn) [AB35492]

pIC50 (Con-NCI-H82 cell),pIC50 (ov-NNMT NCI-H82 cell),pIC50 (sh-DNMT1 NCI-H82 cell),SMILES
5.86,5.46,5.19,COc1ccc2c(c1OCCF)CN1CCc3cc4c(cc3C1=C2)OCO4 [AB35599]
5.90,5.45,5.25,CCCCCCCCC1=C2c3cc4c(cc3CCN2C(C(Cl)(Cl)Cl)c2c1ccc(OC)c2OC)OCO4 (stereo not drawn) [AB35497]
5.43,5.06,4.92,COc1ccc2c(c1OC)C(C)N1CCc3cc4c(cc3C1=C2)OCCO4 (stereo not drawn) [AB31898]
5.30,4.91,4.78,COc1ccc2c(c1OC(=O)CC13CC4CC(CC(C4)C1)C3)C(C1CCCC1)N1CCc3cc4c(cc3C1=C2)OCO4 (stereo not drawn) [AB35459]
6.00,5.48,5.41,CCCCCCC1c2c(ccc(OC)c2OC)C=C2c3cc4c(cc3CCN21)OCCO4 (stereo not drawn) [AB31880]
6.28,5.90,5.65,CCCCCC1=C2c3cc4c(cc3CCN2C(C(Cl)(Cl)Cl)c2c1ccc(OC)c2OC)OCO4 (stereo not drawn) [AB35418]
6.31,5.70,5.49,CCCCCCOc1c(OC)ccc2c1C(C(Cl)(Cl)Cl)N1CCc3cc4c(cc3C1=C2)OCO4 (stereo not drawn) [AB35487]
5.67,5.30,5.36,COc1ccc2c(c1OCCCCNC(=O)OC(C)(C)C)C(C(Cl)(Cl)Cl)N1CCc3cc4c(cc3C1=C2)OCO4 (stereo not drawn) [AB35423]
5.08,5.09,5.11,COc1ccc2c(c1OC)C(c1ccncc1)N1CCc3cc4c(cc3C1=C2)OCO4 (stereo not drawn) [AB36488]
6.42,5.81,5.84,COc1ccc2c(c1OCCBr)CN1CCc3cc4c(cc3C1=C2)OCO4 [AB36403]
6.04,5.46,5.49,COc1ccc2c(c1OC)CN1CCc3cc4c(cc3C1=C2)OCCO4 [AB36463]
5.57,5.12,5.07,COc1ccc2c(c1OCCCCl)C(C1CCC1)N1CCc3cc4c(cc3C1=C2)OCO4 (stereo not drawn) [AB35490]
5.26,4.85,4.69,CC1c2c(ccc3c2OCO3)C=C2c3cc4c(cc3CCN21)OCO4 (stereo not drawn) [AB35413]
5.91,5.31,5.13,[2H]C1([2H])Cc2cc3c(cc2C2=Cc4ccc(OC)c(OC)c4CN21)OCO3 [AB36476]
5.88,5.34,5.40,COc1ccc2c(c1OC(=O)CC13CC4CC(CC(C4)C1)C3)C(C)N1CCc3cc4c(cc3C1=C2)OCO4 (stereo not drawn) [AB31896]
6.28,5.67,5.47,CCCCCOc1c(OC)ccc2c1C(C(Cl)(Cl)Cl)N1CCc3cc4c(cc3C1=C2)OCO4 (stereo not drawn) [AB35505]
5.91,5.60,5.36,COc1ccc2c(c1OC)C(C)N1CCc3cc4c(cc3C1=C2CCCc1ccccc1)OCO4 (stereo not drawn) [AB35411]
5.94,5.49,5.33,COc1ccc2c(c1NCCc1ccccc1)C(C)N1CCc3cc4c(cc3C1=C2)OCO4 (stereo not drawn) [AB31895]
5.48,5.12,5.16,CCCC1=C2c3cc4c(cc3CCN2C(C(Cl)(Cl)Cl)c2c1ccc1c2OCO1)OCO4 (stereo not drawn) [AB36427]
6.06,5.61,5.46,COc1ccc2c(c1OC/C=C(\C)CCC=C(C)C)C(C)N1CCc3cc4c(cc3C1=C2)OCO4 (stereo not drawn) [AB35402]
5.87,5.53,5.54,COc1ccc2c(c1OC)C(C1CCCC1)N1CCc3cc4c(cc3C1=C2CCc1ccccc1)OCO4 (stereo not drawn) [AB35448]

# Reference: patent publication US12502386B2, “Nitrogen-containing heterocyclic compound and use thereof” (SHANGHAI SHIJIANG BIOTECHNOLOGY CO., LTD, priority 2022, dated 2025)
